Tests used:
cancer cells = test: Cancer cell viability (MTT assays), FIG. 22; assay type: cell-based; conditions: TMX 1-50 μM, 48 hours
O-2A/OPCs [1] = test: Analysis of Pb uptake (Leadmium Green AM); assay type: cell-based, rat; conditions: 1 μM Pb, 1 mM NAC
Description: Pre-treatment with NAC was assayed to determine whether levels of intracellular Pb was altered using analysis with the Leadmium Green AM dye (Molecular Probes), according to the manufacturer's instructions. […] (unpaired t-test), and the values for both Pb-treated samples were several-fold higher than control values.

O-2A/OPCs [2] = test: Clonal analysis of division and differentiation; assay type: cell-based, rat
Description: O-2A/OPCs purified from P7 rat optic nerve were plated in. poly-L-lysine-coated 25-cm^2 flasks at clonal density with DMBM medium in the presence of 10-ng/ml PDGF as previously described. After 24-h recovery, cells were treated with different toxicants, each for 3 d, until visual inspection and immunostaining was performed. NAC was added 1 h before exposure to other toxicants for NAC pretreatment, and NAC co-exists throughout the culture period. The numbers of O-2A/OPCs and oligodendrocytes in each clone were determined by counting under fluorescent microscope. […] Experiments were performed in triplicate in at least two independent experiments.

MDA-MB-231 cell = MDA-MB-231 cell division by BrdU incorporation; assay type: cell-based; conditions: NAC 1 mM or PP1 200 nM with 20 μM tamoxifen, 48 hours
Description: It has been reported that c-Cbl induced down-regulation of EGFR is disabled in cancer cells (Hirsch DS, Shen. Y, Wu WJ, (2006) Cancer Res. Apr 1;66(7):3523-30). Thus, growth and motility inhibition of breast cancer cells by EGFR degradation is correlated with inaetivation of Cdc42. […] Cells were cultured in phenol red-free growth media and exposed to TMX (0, 1 μM, 10 μM, 20 μM and 50 μM) for 48 hours, with or without 1 mM NAC. In FIG. 22C. MDA-MB-231 cell division was analyzed by BrdU incorporation analysis. […] Percentage of Brdu+ cells from DAPI+ cells was determined in each sample.

[3] = Brain mercury levels in offspring after maternal drinking water exposure; assay type: in vivo, mice
Description: Six-week-old female SJL mice were treated with MeHg in their drinking water at a concentration of 100 or 250 ppb for 30-60 d prior to mating, and then throughout pregnancy and gestation. This is a level of treatment that is 75%-90% below levels generally considered to be low to moderate and is below levels that have been associated with gross defects in adult or developing animals (e.g., [69-73]).
In the present study, exposure of female mice to MeHg in their drinking water at a concentration of 250 ppb prior to conception, and maintenance of this exposure during suckling, was associated with brain mercury levels in the offspring (examined at P.14) of 50 ng/g, a fall that was precisely in agreement with predictions based on prior studies on the fall of mercury levels occurring during this period in suckling mice. […] The exposure levels of 100 and 250 ppb are 75%-90% below what has otherwise been considered to be low-dose exposure in mice.

PDGFRα mRNA = test: PDGFRα mRNA, real-time RT-PCR; assay type: cell-based, rat; conditions: MeHg exposure
Description: Total RNA was isolated using TRIZOL reagent (Inviirogen, Carlsbad, Calif., United States) according to the manufacturer's protocol. A total of 1 μg of RNA was subjected to reverse transcription using Superscript II (In vitrogen). The reactions were incubated at 42° C. for 50 min. The FAM-iabeled probe mixes for rat PDGFRα and Fyn, and the VIC-labeled GAPDH probe mix were purchased from Applied Biosystems (Foster City Calif., United States). For multiplex real-time PCR, reactions each containing 5 μl of 10-fold diluted reverse transcription product, 1 μl of interest gene probe mix. 1 μl of GAPDH probe mix, and 10 μl of TaqMan Universal PCR Master Mix were performed on an iCycler iQ multicolor real-time PCR system (Bio-Rad, Hercules, Calif., United States) and cycling condition was 50° C. for 2 min and 95° C. for 10 min, followed by 40 cycles of 95° C. for 15 sec and 60° C. for 1 min. Each sample was run in triplicate. Data were analyzed, by iCycler iQ software (Bio-Rad).

EGFR = EGFR levels in brain tissue after developmental exposure; assay type: in vivo, SJL mice; conditions: 100 or 250 ppb MeHg in maternal drinking water; 7 and 21 d after birth
From the text: (§1) Anti-phosphorylated Erk monoclonal, anti-Erk monoclonal, anti-TrkC polyclonal anti-Fyn polyclonal, anti-EGFR polyclonal, anti-c-Met polyclonal, anti-phospho-tyrosine monoclonal, and anti-PDGFRα polyclonal antibodies were obtained from Santa Cruz Biotechnology (Santa Cruz, Calif., United States). Anti-c-Cbl monoclonal antibody was obtained from BD PharMingen (San Diego, Calif., United States). Anti-phosphorylated Akt monoclonal and anti-Akt polyclonal antibodies were obtained from Cell Signaling Technology (Beverly, Mass., United States). Anti-phosphorylated PDGPRα polyclonal antibody was obtained from Biosource (Carlsbad, Calif., United States). The cell culture samples were collected and lysed in RAPI buffer, whereas dissected tissue samples were sonicated in RAPI buffer. Samples were resolved on SDS-PAGE gels and transferred to PVDF membranes (PerkinElmer Life Science. Wellesley, Mass., United States), After being blocked in 5% skim milk in PBS containing 0.1% Tween 20, membranes were incubated with a primary antibody, followed by incubation with an HRP-conjugated secondary antibody (Santa Cruz Biotechnology). Membranes were visualized using Western Blotting Luminol Reagent (Santa Cruz Biotechnology). […]

TrkC = TrkC levels in brain tissue after developmental exposure; assay type: in vivo, SJL mice; conditions: 100 or 250 ppb MeHg in maternal drinking water
From the text: as §1

O-2A/OPCs [4] = test: Cell death of O-2A/OPCs on exposure; assay type: cell-based, rat
Description: To generate sufficient numbers of cells for biochemical analysis, cells, were expanded through one to two passages in PDGF+FGF-2 before replating in the presence of PDGF alone. When cells achieved approximately 50% confluence, MeHg, Pb, or paraquat was added to their medium at concentrations indicated. Doses for the toxicants were chosen on the basis of dose-response curves to identify sub-lethal exposure levels, as a reflection of blood and brain toxicant levels of these compounds and, where applicable, on the basis of previous reports. All toxicant concentrations examined were confirmed to cause death of less than 5% of cells over the time course of the experiment.

Row | Structure (SMILES) | effect on TMX effects on cancer cells (cancer cells) | Pb levels in cells, Pb versus Pb and NAC (O-2A/OPCs [1]) | effect on MeHg-induced suppression of cell division at the clonal level (O-2A/OPCs [2]; co-exposure with MeHg, 1 mM NAC or PP1) | rescue from tamoxifen effect on cell division (MDA-MB-231 cell) | brain mercury in offspring ([3]; 100 ppb MeHg in maternal drinking water) | brain mercury levels in the offspring ([3]; 250 ppb MeHg in maternal drinking water, examined at P14) [ng/g] | levels of PDGFRα mRNA (PDGFRα mRNA) | levels of EGFR in brain (EGFR) | levels of TrkC in brain (TrkC) | clone composition (cell division at the clonal level) (O-2A/OPCs [2]; MeHg exposure, PDGF) | cell death at the concentrations used (O-2A/OPCs [4]; MeHg at lower concentrations (not above 50 nM), 1 μM Pb, 5 μM paraquat) | exposure level associated with significant lethality (O-2A/OPCs [4]; O-2A/OPCs)
1 | CC(=O)N[C@@H](CS)C(=O)O [NAC, N-acetyl-L-cysteine] | not blocked | no significant difference | blocked | did not result in any rescue effect |  |  |  |  |  |  |  | 
2 | [CH3][Hg][Cl] [MeHg, methylmercury] |  |  |  |  | below the levels of detection | 50 | did not have any significant effects | clear and significant reductions | not reduced | reduction in the number of large clones and an increase in the number of small clones | little or no cell death | above 50 nM
